For series [1], the system named is unfractionated heparin (thrombin-induced clot formation). The series can be described thus: Thrombin neutralization assay: clotting time of citrated plasma in the presence of unfractionated heparin. It is filed as biochemical, human. The following applies: for Time for clot formation: UFH 0.5 IU/ml. How it is done:
It was determined whether heparin-binding peptides of the invention can neutralize unfractionated heparin using the thrombin neutralization assay. The six peptides that were synthesized and used in this Example are: (ARKKAAKA)3VLVLVLVL (SEQ ID NO:5); (ARKKAAKA)(A16)(ARKKAAKA) (SEQ ID NO:30); (ARKKAAKA)4 (SEQ ID NO:31); (AKKARA)6 (SEQ ID NO:32); (ARKKAAKA)3(ARKKCAKA) (SEQ ID NO:33); and cyclized C(ARKKAAKA)4C (SEQ ID NO:34); Citrated plasma was pipetted into a glass tube. Thrombin was added, the tube was manually rotated, and clotting time was determined by observation of clot formation. Normal clotting time is 19-22 seconds.
As a control, to assess the effect of heparin on clot formation, unfractionated heparin was added to the plasma at 0.5 IU anti-thrombin activity/ml and then thrombin was added. Clotting time in the presence of heparin alone was greater than 3 minutes.
To test the effect of peptides, heparin and six peptides at the concentrations indicated in Table 4 were added to the plasma, the mixture was allowed to stand at room temperature for 1 minute, and thrombin was added. The time for the clot to form is indicated. Experiments were performed using plasma from three volunteers—A, B, and C.

The nature of series [2]: Hemodynamic effects in rats after administration of the LMWH Lovenox. The following applies: in the presence of LMWH Lovenox.
Protocol: Next, experiments were performed in which the animals were treated with the peptides after the administration of the LMWH Lovenox®, as would happen in the clinical situation, because binding of peptides to LMWH would be expected to reduce the effects of the peptides on hemodynamic function.
For series [3], the system named is platelets. Put plainly: Platelet aggregation with aggregation-inducing agents. It counts as cell-based, human. The following applies: 12 μg/ml; Lovenox 0.5 U/ml; collagen, ADP, ristocetin, epinephrine, SFFLRN, A23187. How it is done: Plasma from six volunteers was tested with various aggregation inducing agents, at several concentrations of each agent, and with six different peptides of the invention. The effect of heparin-binding peptides of the invention on platelet aggregation was determined using standard procedures as previously described. The six peptides which were synthesized and tested were: (ARKKAAKA)4 (SEQ ID NO:31), ARKKAAKA(A16)ARKKAAKA (SEQ ID NO:30), (ARKKAAKA)3ARKKCAKA (SEQ ID NO:33), (ARKKAAKA)3VLVLVLVL (SEQ ID NO:5), C(ARKKAAKA)4C (SEQ ID NO:34), and (AKKARA)6 (SEQ ID NO:32).
The aggregation-inducing agents tested were: collagen, adenosine diphosphate (ADP), ristocetin, epinephrine, the thrombin receptor peptide SFFLRN, and calcium ionophore A23187. Platelets were subjected to protamine, or to SEQ ID NOS:31, 33, 30, 5, 34, or 32 at 12 μg/ml, and Lovenox® at 0.5 U/ml. Platelet aggregation in response to agonists was monitored and percent aggregation was determined over a five minute interval.
The agonist was added after equilibration of the platelets for one minute.

In series [4] the test system is anti-Factor Xa activity of Lovenox®. Put plainly: In vivo neutralization of the LMWH Lovenox in rats (anti-Factor Xa assay of plasma). On the procedure:
Experiments were performed to test the ability of heparin-binding peptides of the invention to neutralize low molecular weight heparins which are used clinically, such as Lovenox®. To this end, rats were cannulated in the jugular and femoral veins. Lovenox® was injected through the jugular vein, and three minutes later the peptide was injected via the jugular vein. The peptides tested included (ARKKAAKA)4 (SEQ ID NO:31), C(ARKKAAKA)4C (SEQ ID NO:34), (ARKKAAKA)3ARKKCAKA (SEQ ID NO:33), and (ARKKAAKA)3VLVLVLVL (SEQ ID NO:5). Blood was collected from the femoral vein. 0.1 ml was collected at each time point. Plasma was prepared from each tube, and the anti-Factor Xa assay was performed.
Results. The dose response of each peptide from 2 mg/300 gm to 0.5 mg/300 gm was tested and a representative dose (1.0 mg) is shown in FIG. 4. […] The absorbance is inversely proportional to the heparin concentration. There is no heparin present when A405=0.7, and about 1 U/ml when A405=0.4. The events at the arrows are indicated in the box insert.

Setting [5] is: 0.35 μg peptide/0.1 ml, plasma A.
The mark [6] stands for this setting: 0.40 μg peptide/0.1 ml, plasma A.
The mark [7] stands for this setting: 0.40 μg peptide/0.1 ml, plasma B.
Where [8] appears, read: 0.40 μg peptide/0.1 ml, plasma C.
Where [9] appears, read: 0.50 μg peptide/0.1 ml, plasma A.
The mark [10] stands for this setting: 0.50 μg peptide/0.1 ml, plasma B.
Setting [11] is: 0.50 μg peptide/0.1 ml, plasma C.
Where [12] appears, read: 0.30 μg peptide/0.1 ml, plasma A.
Where [13] appears, read: 0.30 μg peptide/0.1 ml, plasma B.
The mark [14] stands for this setting: 0.35 μg peptide/0.1 ml, plasma B.
Setting [15] is: 0.35 μg peptide/0.1 ml, plasma C.

Consider five compounds from patent publication US7259140B2, “Heparin-binding peptides and uses thereof” (Thomas Jefferson University, priority 2003, dated 2007).

Entries after “also recorded” stand apart in the source; their conditions may differ. Bridge positions count the residues as written; N and C are the ends. Ends that are not written are not given here. Peptide text beside a SMILES is read from it. Some results are limits rather than exact numbers.

Take `C[C@@H]1NC(=O)[C@H](C)NC(=O)[C@H](CCCCN)NC(=O)[C@H](CCCCN)NC(=O)[C@H](CCCNC(=N)N)NC(=O)[C@H](C)NC(=O)[C@H](C)NC(=O)[C@H](CCCCN)NC(=O)[C@H](C)NC(=O)[C@H](C)NC(=O)[C@H](CCCCN)NC(=O)[C@H](CCCCN)NC(=O)[C@H](CCCNC(=N)N)NC(=O)[C@H](C)NC(=O)[C@@H](N)CSSC[C@@H](C(=O)O)NC(=O)[C@H](C)NC(=O)[C@H](CCCCN)NC(=O)[C@H](C)NC(=O)[C@H](C)NC(=O)[C@H](CCCCN)NC(=O)[C@H](CCCCN)NC(=O)[C@H](CCCNC(=N)N)NC(=O)[C@H](C)NC(=O)[C@H](C)NC(=O)[C@H](CCCCN)NC(=O)[C@H](C)NC(=O)[C@H](C)NC(=O)[C@H](CCCCN)NC(=O)[C@H](CCCCN)NC(=O)[C@H](CCCNC(=N)N)NC(=O)[C@H](C)NC(=O)[C@H](C)NC(=O)[C@H](CCCCN)NC1=O` [C(ARKKAAKA)4C, cyclized C(ARKKAAKA)4C] (H-CARKKAAKAARKKAAKAARKKAAKAARKKAAKAC-OH; disulfide 1-34): the “effectiveness in thrombin neutralization assay” value in series [1] is recorded as “effective”. The “Time for clot formation” value in series [1] (setting [5]) worked out at 37.67 ± 5.25 s; in series [1] (setting [6]), 29.00 ± 0.82 s; in series [1] (setting [7]) it was 47.67 ± 8.34 s; in series [1] (setting [8]), 56.33 ± 1.70 s; in series [1] (setting [9]), 23.67 ± 2.05 s; in series [1] (setting [10]), 34.33 ± 1.25 s. In addition, the “Time for clot formation” value in series [1] (setting [11]) was 43.00 ± 2.45 s. In addition, the “effect on blood pressure and heart rate / toxicity” value is given as “no, or minimal, adverse effects on blood pressure or heart rate; also recorded: not toxic” in series [2] and “All rats tested showed no response” in series [2] (listed as C(ARKKAAKA)4C-cyclized). The “effect on platelet aggregation” value in series [3] is recorded as “no significant inhibition or enhancement of aggregation”.

As to “ARKKAAKAAAAAAAAAAAAAAAAAARKKAAKA [ARKKAAKA(A16)ARKKAAKA, reference compound]”, the “effectiveness in thrombin neutralization assay” value in series [1] was “ineffective”. Besides, the “Time for clot formation” value stood at 55.00 ± 4.08 s in series [1] (6.0 μg peptide/0.1 ml, plasma B); 76.33 ± 4.19 s in series [1] (6.5 μg peptide/0.1 ml, plasma A); 48.67 ± 7.72 s in series [1] (6.5 μg peptide/0.1 ml, plasma C); 61.00 ± 2.94 s in series [1] (7.0 μg peptide/0.1 ml, plasma A); 85.67 ± 3.30 s in series [1] (7.0 μg peptide/0.1 ml, plasma B); 47.67 ± 3.77 s in series [1] (7.0 μg peptide/0.1 ml, plasma C). Also, the “Time for clot formation” value in series [1] (7.5 μg peptide/0.1 ml, plasma A) amounted to 58.67 ± 1.89 s; in series [1] (7.5 μg peptide/0.1 ml, plasma C), 180.0 ± 0.00 s. Moreover, the “effect on platelet aggregation” value in series [3] is recorded as “no significant inhibition or enhancement of aggregation”.

For the compound “ARKKAAKAARKKAAKAARKKAAKAARKKAAKA [(ARKKAAKA)4]”, the “Time for clot formation” value in series [1] (setting [12]) worked out at 56.33 ± 4.92 s; in series [1] (setting [13]), 53.33 ± 1.25 s; in series [1] (setting [5]), 22.33 ± 0.47 s; in series [1] (setting [14]) it was 39.00 ± 5.35 s; in series [1] (setting [15]), 32.67 ± 0.47 s; in series [1] (setting [6]) it was 18.67 ± 0.94 s. Further, the “Time for clot formation” value in series [1] (setting [7]) is 26.30 ± 1.25 s; in series [1] (setting [8]), 22.67 ± 1.25 s; in series [1] (setting [9]), 19.67 ± 1.25 s; in series [1] (setting [10]), 24.00 ± 0.82 s; in series [1] (setting [11]), 20.67 ± 0.94 s. In addition, the “effect on blood pressure and heart rate / toxicity” value in series [2] is “no significant effect on blood pressure and heart rate; also recorded: All four rats tested showed no response”. Moreover, in series [3], the “effect on platelet aggregation” value is reported as “no significant inhibition or enhancement of aggregation”.

Turning to “ARKKAAKAARKKAAKAARKKAAKAVLVLVLVL [(ARKKAAKA)3VLVLVLVL]”, the “rank in in vivo neutralization of Lovenox” value in series [4] was “most effective at the lowest dose”. In addition, the “Time for clot formation” value in series [1] (setting [12]) turned out to be 37.00 ± 2.16 s; in series [1] (setting [13]) it was 40.00 ± 1.63 s; in series [1] (setting [14]) it was 28.33 ± 1.70 s; in series [1] (setting [15]), 45.33 ± 2.05 s; in series [1] (setting [6]) it was 20.00 ± 0.82 s; in series [1] (setting [7]) it was 26.67 ± 1.25 s. Further, the “Time for clot formation” value was 32.33 ± 2.05 s in series [1] (setting [8]), 17.67 ± 1.25 s in series [1] (setting [9]), 23.67 ± 0.47 s in series [1] (setting [10]) and 25.67 ± 0.47 s in series [1] (setting [11]). Further, the “effect on blood pressure and heart rate / toxicity” value in series [2] is “no, or minimal, adverse effects on blood pressure or heart rate”. Also, the “effect on platelet aggregation” value in series [3] was “no significant inhibition or enhancement of aggregation”.

Take Protamine [reference compound]: in series [2], the blood pressure drop was ≥ 30 mm Hg, the “duration of blood pressure drop” value turned out to be 10 min, the heart rate nadir result is recorded as “about 80 % of normal” and the “rats with blood pressure drop out of rats tested” value is 10 out of 15.
